Reference: patent publication US12545652B2, “Crystalline forms of a TYK2 inhibitor” (Sareum Limited, priority 2020, dated 2026)

Assay: Anti-solvent addition crystallisation at 60° C., observations and form fate by XRPD
Assay type: physicochemical
Conditions: for Crystalline Form fate by XRPD: Addition at 60° C.
Protocol: The equilibration of Form A in a range of solvents with thermal modulation indicated a range of suitable solvents and anti-solvents. Consequently, Form A was dissolved in a range of four solvents at an elevated temperature, clarified and charged with anti-solvent at the elevated temperature to assess the propensity of the compound towards anti-solvent-driven crystallisation.
2-(2,6-dichlorophenyl)-5-[4-(1,1-dioxo-1,4-thiazinane-4-carbonyl)anilino]oxazole-4-carboxamide Form A, 4×150-152 mg, was weighed into four crystallisation tubes. Four different solvents (see Table 8) were then charged to the solids and the resulting mixtures heated to 60° C. Where suspensions persisted, additional solvent was charged to achieve dissolution. Upon dissolution of the four mixtures, the solutions were clarified and aliquots containing ca. 30 mg of the compound were charged to four crystallisation tubes.
To each of the four aliquots was charged an anti-solvent (see Table 8), ca. 5 vol., at 60° C. and immediate observations were made. Observations were made after equilibration for 1 hour before additional anti-solvent, 5 vol., was charged to all mixtures. Where suspensions or immiscible mixtures had formed, no further anti-solvent was charged. To all solutions and hazes, additional anti-solvent up to 20 vol. total charge was added.
The mixtures were equilibrated at 60° C. for another hour before cooling to 25° C. over ca. 3 hours and equilibrated for ca. 14½ hours. […] Upon isolation, all solids were dried in vacuo under air for ca. 1 hour and then dried in the oven in vacuo at 45° C. for 70 hours.

For `NC(=O)c1nc(-c2c(Cl)cccc2Cl)oc1Nc1ccc(C(=O)N2CCS(=O)(=O)CC2)cc1` [Form A, 2-(2,6-dichlorophenyl)-5-[4-(1,1-dioxo-1,4-thiazinane-4-carbonyl)anilino]oxazole-4-carboxamide], the Observation on outcome (ID A1, THF/water, 4:1 10 vol., Cyclohexane, 25° C., 20 vol, 19 Hrs) was “Susp”, the Observation on outcome (ID A1, THF/water, 4:1 10 vol., Cyclohexane, 60° C., 5 vol. anti-solvent, 1 Hr) was “Susp” and the Observation on outcome (ID A1, THF/water, 4:1 10 vol., Cyclohexane, 60° C., 5 vol. anti-solvent, Immediate) was “Gum”. For the same compound, the Observation on outcome (ID A1, THF/water, 4:1 10 vol., Cyclohexane, 60° C., 10 vol. anti-solvent) was “Susp”, the Observation on outcome (ID A2, THF/water, 4:1 10 vol., Heptane, 25° C., 20 vol, 19 Hrs) was “Gummy” and the Observation on outcome (ID A2, THF/water, 4:1 10 vol., Heptane, 60° C., 5 vol. anti-solvent, 1 Hr) was “Susp”. The Observation on outcome (ID A2, THF/water, 4:1 10 vol., Heptane, 60° C., 5 vol. anti-solvent, Immediate) was “Gum”, the Observation on outcome (ID A2, THF/water, 4:1 10 vol., Heptane, 60° C., 10 vol. anti-solvent) was “Susp” and the Observation on outcome (ID A3, THF/water, 4:1 10 vol., Benzotrifluoride, 25° C., 20 vol, 19 Hrs) was “Susp”. The Observation on outcome (ID A3, THF/water, 4:1 10 vol., Benzotrifluoride, 60° C., 5 vol. anti-solvent, 1 Hr) was “Susp”, the Observation on outcome (ID A3, THF/water, 4:1 10 vol., Benzotrifluoride, 60° C., 5 vol. anti-solvent, Immediate) was “Susp” and the Observation on outcome (ID A3, THF/water, 4:1 10 vol., Benzotrifluoride, 60° C., 10 vol. anti-solvent) was “Susp”. For the same compound, the Observation on outcome (ID A4, THF/water, 4:1 10 vol., 2-Chlorobutane, 25° C., 20 vol, 19 Hrs) was “Susp”, the Observation on outcome (ID A4, THF/water, 4:1 10 vol., 2-Chlorobutane, 60° C., 5 vol. anti-solvent, 1 Hr) was “Susp” and the Observation on outcome (ID A4, THF/water, 4:1 10 vol., 2-Chlorobutane, 60° C., 5 vol. anti-solvent, Immediate) was “Susp”. For the same compound, the Observation on outcome (ID A4, THF/water, 4:1 10 vol., 2-Chlorobutane, 60° C., 10 vol. anti-solvent) was “Susp”, the Observation on outcome (ID B1, THF 25 vol., Cyclohexane, 25° C., 20 vol, 19 Hrs) was “Susp” and the Observation on outcome (ID B1, THF 25 vol., Cyclohexane, 60° C., 5 vol. anti-solvent, 1 Hr) was “Susp”. For the same compound, the Observation on outcome (ID B1, THF 25 vol., Cyclohexane, 60° C., 5 vol. anti-solvent, Immediate) was “Gum→Soln”, the Observation on outcome (ID B1, THF 25 vol., Cyclohexane, 60° C., 10 vol. anti-solvent) was “Susp” and the Observation on outcome (ID B2, THF 25 vol., Heptane, 25° C., 20 vol, 19 Hrs) was “Susp”. The Observation on outcome (ID B2, THF 25 vol., Heptane, 60° C., 5 vol. anti-solvent, 1 Hr) was “Susp”, the Observation on outcome (ID B2, THF 25 vol., Heptane, 60° C., 5 vol. anti-solvent, Immediate) was “Gum→Soln” and the Observation on outcome (ID B2, THF 25 vol., Heptane, 60° C., 10 vol. anti-solvent) was “Susp”. For the same compound, the Observation on outcome (ID B3, THF 25 vol., Benzotrifluoride, 25° C., 20 vol, 19 Hrs) was “Susp”, the Observation on outcome (ID B3, THF 25 vol., Benzotrifluoride, 60° C., 5 vol. anti-solvent, 1 Hr) was “Susp” and the Observation on outcome (ID B3, THF 25 vol., Benzotrifluoride, 60° C., 5 vol. anti-solvent, Immediate) was “Soln”. The Observation on outcome (ID B3, THF 25 vol., Benzotrifluoride, 60° C., 10 vol. anti-solvent) was “Susp”, the Observation on outcome (ID B4, THF 25 vol., 2-Chlorobutane, 25° C., 20 vol, 19 Hrs) was “Susp” and the Observation on outcome (ID B4, THF 25 vol., 2-Chlorobutane, 60° C., 5 vol. anti-solvent, 1 Hr) was “Susp”. The Observation on outcome (ID B4, THF 25 vol., 2-Chlorobutane, 60° C., 5 vol. anti-solvent, Immediate) was “Soln”, the Observation on outcome (ID B4, THF 25 vol., 2-Chlorobutane, 60° C., 10 vol. anti-solvent) was “Susp” and the Observation on outcome (ID C1, Nitromethane 50 vol., Cyclohexane, 25° C., 20 vol, 19 Hrs) was “Bi. Susp”. The Observation on outcome (ID C1, Nitromethane 50 vol., Cyclohexane, 60° C., 5 vol. anti-solvent, 1 Hr) was “Immiscible”, the Observation on outcome (ID C1, Nitromethane 50 vol., Cyclohexane, 60° C., 5 vol. anti-solvent, Immediate) was “Immiscible” and the Observation on outcome (ID C1, Nitromethane 50 vol., Cyclohexane, 60° C., 10 vol. anti-solvent) was “Immiscible”. The Observation on outcome (ID C2, Nitromethane 50 vol., Heptane, 25° C., 20 vol, 19 Hrs) was “Bi. Susp”, the Observation on outcome (ID C2, Nitromethane 50 vol., Heptane, 60° C., 5 vol. anti-solvent, 1 Hr) was “Soln” and the Observation on outcome (ID C2, Nitromethane 50 vol., Heptane, 60° C., 5 vol. anti-solvent, Immediate) was “Soln”. The Observation on outcome (ID C2, Nitromethane 50 vol., Heptane, 60° C., 10 vol. anti-solvent) was “Soln”, the Observation on outcome (ID C2, Nitromethane 50 vol., Heptane, 60° C., 15 vol. anti-solvent) was “Soln” and the Observation on outcome (ID C2, Nitromethane 50 vol., Heptane, 60° C., 20 vol. anti-solvent) was “Soln”. The Observation on outcome (ID C3, Nitromethane 50 vol., Benzotrifluoride, 25° C., 20 vol, 19 Hrs) was “Susp”, the Observation on outcome (ID C3, Nitromethane 50 vol., Benzotrifluoride, 60° C., 5 vol. anti-solvent, 1 Hr) was “Soln” and the Observation on outcome (ID C3, Nitromethane 50 vol., Benzotrifluoride, 60° C., 5 vol. anti-solvent, Immediate) was “Soln”. For the same compound, the Observation on outcome (ID C3, Nitromethane 50 vol., Benzotrifluoride, 60° C., 10 vol. anti-solvent) was “Soln”, the Observation on outcome (ID C3, Nitromethane 50 vol., Benzotrifluoride, 60° C., 15 vol. anti-solvent) was “Soln” and the Observation on outcome (ID C3, Nitromethane 50 vol., Benzotrifluoride, 60° C., 20 vol. anti-solvent) was “Soln”. For the same compound, the Observation on outcome (ID C4, Nitromethane 50 vol., 2-Chlorobutane, 25° C., 20 vol, 19 Hrs) was “Susp”, the Observation on outcome (ID C4, Nitromethane 50 vol., 2-Chlorobutane, 60° C., 5 vol. anti-solvent, 1 Hr) was “Soln” and the Observation on outcome (ID C4, Nitromethane 50 vol., 2-Chlorobutane, 60° C., 5 vol. anti-solvent, Immediate) was “Soln”. For the same compound, the Observation on outcome (ID C4, Nitromethane 50 vol., 2-Chlorobutane, 60° C., 10 vol. anti-solvent) was “Soln”, the Observation on outcome (ID C4, Nitromethane 50 vol., 2-Chlorobutane, 60° C., 15 vol. anti-solvent) was “Soln” and the Observation on outcome (ID C4, Nitromethane 50 vol., 2-Chlorobutane, 60° C., 20 vol. anti-solvent) was “Soln”. For the same compound, the Observation on outcome (ID D1, MeCN/water, 4:1 55 vol., Cyclohexane, 25° C., 20 vol, 19 Hrs) was “Immiscible”, the Observation on outcome (ID D1, MeCN/water, 4:1 55 vol., Cyclohexane, 60° C., 5 vol. anti-solvent, 1 Hr) was “Immiscible” and the Observation on outcome (ID D1, MeCN/water, 4:1 55 vol., Cyclohexane, 60° C., 5 vol. anti-solvent, Immediate) was “Immiscible”. For the same compound, the Observation on outcome (ID D1, MeCN/water, 4:1 55 vol., Cyclohexane, 60° C., 10 vol. anti-solvent) was “Immiscible”, the Observation on outcome (ID D2, MeCN/water, 4:1 55 vol., Heptane, 25° C., 20 vol, 19 Hrs) was “Bi. Susp” and the Observation on outcome (ID D2, MeCN/water, 4:1 55 vol., Heptane, 60° C., 5 vol. anti-solvent, 1 Hr) was “Immiscible”. The Observation on outcome (ID D2, MeCN/water, 4:1 55 vol., Heptane, 60° C., 5 vol. anti-solvent, Immediate) was “Immiscible”, the Observation on outcome (ID D2, MeCN/water, 4:1 55 vol., Heptane, 60° C., 10 vol. anti-solvent) was “Immiscible” and the Observation on outcome (ID D3, MeCN/water, 4:1 55 vol., Benzotrifluoride, 25° C., 20 vol, 19 Hrs) was “Susp”. The Observation on outcome (ID D3, MeCN/water, 4:1 55 vol., Benzotrifluoride, 60° C., 5 vol. anti-solvent, 1 Hr) was “Soln”, the Observation on outcome (ID D3, MeCN/water, 4:1 55 vol., Benzotrifluoride, 60° C., 5 vol. anti-solvent, Immediate) was “Soln” and the Observation on outcome (ID D3, MeCN/water, 4:1 55 vol., Benzotrifluoride, 60° C., 10 vol. anti-solvent) was “Haze”. For the same compound, the Observation on outcome (ID D3, MeCN/water, 4:1 55 vol., Benzotrifluoride, 60° C., 15 vol. anti-solvent) was “Immiscible”, the Observation on outcome (ID D3, MeCN/water, 4:1 55 vol., Benzotrifluoride, 60° C., 20 vol. anti-solvent) was “Immiscible” and the Observation on outcome (ID D4, MeCN/water, 4:1 55 vol., 2-Chlorobutane, 25° C., 20 vol, 19 Hrs) was “Bi. Susp”. The Observation on outcome (ID D4, MeCN/water, 4:1 55 vol., 2-Chlorobutane, 60° C., 5 vol. anti-solvent, 1 Hr) was “Soln”, the Observation on outcome (ID D4, MeCN/water, 4:1 55 vol., 2-Chlorobutane, 60° C., 5 vol. anti-solvent, Immediate) was “Soln” and the Observation on outcome (ID D4, MeCN/water, 4:1 55 vol., 2-Chlorobutane, 60° C., 10 vol. anti-solvent) was “Haze”. For the same compound, the Observation on outcome (ID D4, MeCN/water, 4:1 55 vol., 2-Chlorobutane, 60° C., 15 vol. anti-solvent) was “Haze”, the Observation on outcome (ID D4, MeCN/water, 4:1 55 vol., 2-Chlorobutane, 60° C., 20 vol. anti-solvent) was “Haze” and the “Crystalline Form fate by XRPD” value (MeCN/water, 4:1 55 vol., 2-Chlorobutane) was “Form A”. The “Crystalline Form fate by XRPD” value (MeCN/water, 4:1 55 vol., Benzotrifluoride) was “Form A”, the “Crystalline Form fate by XRPD” value (MeCN/water, 4:1 55 vol., Heptane) was “Form A” and the “Crystalline Form fate by XRPD” value (Nitromethane 50 vol., 2-Chlorobutane) was “Form C +”. The “Crystalline Form fate by XRPD” value (Nitromethane 50 vol., Benzotrifluoride) was “Form B”, the “Crystalline Form fate by XRPD” value (Nitromethane 50 vol., Heptane) was “Form B” and the “Crystalline Form fate by XRPD” value (THF 25 vol., 2-Chlorobutane) was “Form B”. For the same compound, the “Crystalline Form fate by XRPD” value (THF 25 vol., Benzotrifluoride) was “Form B”, the “Crystalline Form fate by XRPD” value (THF 25 vol., Heptane) was “Form B” and the “Crystalline Form fate by XRPD” value (THF/water, 4:1 10 vol., 2-Chlorobutane) was “Form A”. The “Crystalline Form fate by XRPD” value (THF/water, 4:1 10 vol., Benzotrifluoride) was “Form A”.
